Source: US20210045385A1, “PYRIDAZINONE-SUBSTITUTED KETOXIMES AS HERBICIDES” (FMC Corporation, priority 2018, published 2021)

Key:
Type in all cases: in vivo
[1] = test system: Italian ryegrass (Lolium multiflorum); experiment: Test A preemergence, visual plant response rating; details: for Ryegrass, Italian plant response rating: preemergence, 0 to 100 scale, 0 no effect, 100 complete control; for Ryegrass, Italian plant response rating (0 to 100 scale): 500 g ai/ha Preemergence, approx. 10 days
How it was run: (§1)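 Compared with untreated controls, treated plants received a visual injury score on a 0–100 scale around 10 days after application. The compound, in a non-phytotoxic solvent with surfactant, was given as a preemergence soil spray or postemergence at the one- to two-leaf stage.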

[2] = test system: barnyardgrass (Echinochloa crus-galli); experiment: Test A preemergence, visual plant response rating; details: for Barnyardgrass plant response rating: preemergence, 0 to 100 scale, 0 no effect, 100 complete control; for Barnyardgrass plant response rating (0 to 100 scale): 500 g ai/ha Preemergence, approx. 10 days
How it was run: as §1

[3] = test system: foxtail, giant (giant foxtail, Setaria faberii); experiment: Test A preemergence, visual plant response rating; details: for Foxtail, Giant plant response rating: preemergence, 0 to 100 scale, 0 no effect, 100 complete control; for Foxtail, Giant plant response rating (0 to 100 scale): 500 g ai/ha Preemergence, approx. 10 days
How it was run: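 Preemergence: seeds in loam/sand blend given directed soil spray of compound in non-phytotoxic solvent with surfactant. Postemergence: plants 2–10 cm, one- to two-leaf stage, sprayed with same formulation. Visual injury rated vs untreated controls after ~10 days in greenhouse, 0 (no effect) to 100 (complete control).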

kochia (Kochia scoparia) [4] = experiment: Test A preemergence, visual plant response rating; details: for Kochia plant response rating: preemergence, 0 to 100 scale, 0 no effect, 100 complete control; for Kochia plant response rating (0 to 100 scale): 500 g ai/ha Preemergence, approx. 10 days
How it was run: as §1

[5] = test system: pigweed (Amaranthus retroflexus); experiment: Test A preemergence, visual plant response rating; details: for Pigweed plant response rating: preemergence, 0 to 100 scale, 0 no effect, 100 complete control; for Pigweed plant response rating (0 to 100 scale): 500 g ai/ha Preemergence, approx. 10 days
How it was run: as §1

[6] = test system: ragweed (common ragweed, Ambrosia elatior); experiment: Test A preemergence, visual plant response rating; details: for Ragweed plant response rating: preemergence, 0 to 100 scale, 0 no effect, 100 complete control; for Ragweed plant response rating (0 to 100 scale): 500 g ai/ha Preemergence, approx. 10 days
How it was run: as §1

[7] = test system: Italian ryegrass (Lolium multiflorum); experiment: Test A postemergence, visual plant response rating; details: for Ryegrass, Italian plant response rating: Postemergence, 125 g ai/ha, 0 to 100 scale (0 no effect, 100 complete control)
How it was run: as §1

[8] = test system: barnyardgrass (Echinochloa crus-galli); experiment: Test A postemergence, visual plant response rating; details: for Barnyardgrass plant response rating: Postemergence, 125 g ai/ha, 0 to 100 scale (0 no effect, 100 complete control)
How it was run: as §1

[9] = test system: blackgrass (Alopecurus myosuroides); experiment: Test A postemergence, visual plant response rating; details: for Blackgrass plant response rating: Postemergence, 125 g ai/ha, 0 to 100 scale (0 no effect, 100 complete control)
How it was run: as §1

corn (Zea mays) = experiment: Test A postemergence, visual plant response rating; details: for Corn plant response rating: Postemergence, 125 g ai/ha, 0 to 100 scale (0 no effect, 100 complete control)
How it was run: as §1

[10] = test system: foxtail, giant (giant foxtail, Setaria faberii); experiment: Test A postemergence, visual plant response rating; details: for Foxtail, Giant plant response rating: Postemergence, 125 g ai/ha, 0 to 100 scale (0 no effect, 100 complete control)
How it was run: as §1

[11] = test system: galium (catchweed bedstraw, Galium aparine); experiment: Test A postemergence, visual plant response rating; details: for Galium plant response rating: Postemergence, 125 g ai/ha, 0 to 100 scale (0 no effect, 100 complete control)
How it was run: as §1

kochia (Kochia scoparia) [12] = experiment: Test A postemergence, visual plant response rating; details: for Kochia plant response rating: Postemergence, 125 g ai/ha, 0 to 100 scale (0 no effect, 100 complete control)
How it was run: as §1

[13] = test system: pigweed (Amaranthus retroflexus); experiment: Test A postemergence, visual plant response rating; details: for Pigweed plant response rating: Postemergence, 125 g ai/ha, 0 to 100 scale (0 no effect, 100 complete control)
How it was run: as §1

[14] = test system: ragweed (common ragweed, Ambrosia elatior); experiment: Test A postemergence, visual plant response rating; details: for Ragweed plant response rating: Postemergence, 125 g ai/ha, 0 to 100 scale (0 no effect, 100 complete control)
How it was run: as §1

[15] = test system: wheat (Triticum aestivum); experiment: Test A postemergence, visual plant response rating; details: for Wheat plant response rating: Postemergence, 125 g ai/ha, 0 to 100 scale (0 no effect, 100 complete control)
How it was run: as §1

[16] = test system: barnyardgrass (Echinochloa crus-galli); experiment: Test B flooded paddy test, visual plant response rating; details: 250 g ai/ha, Flood, applied to paddy water, 2-leaf stage, evaluated after 13 to 15 days
How it was run: (§2)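 Flooded-pot treatment: water 3 cm over the soil, chemical delivered into that water, depth unchanged for the duration. Assessed by eye versus controls following 13–15 greenhouse days; plants were at 2 leaves when dosed.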

[17] = test system: ducksalad (Heteranhera limosa); experiment: as above; details: 250 g ai/ha, Flood, applied to paddy water, 2-leaf stage, evaluated after 13 to 15 days
How it was run: as §2

rice (Oryza sativa) = experiment: as above; details: 250 g ai/ha, Flood, applied to paddy water, 2-leaf stage, evaluated after 13 to 15 days
How it was run: as §2

[18] = test system: sedge, umbrella (small-flower umbrella sedge, Cyperus difformis); experiment: as above; details: 250 g ai/ha, Flood, applied to paddy water, 2-leaf stage, evaluated after 13 to 15 days
How it was run: as §2

[19] = 500 g ai/ha, postemergence, 0 is no effect, 100 is complete control
[20] = 1000 g ai/ha Postemergence, approx. 10 days

Structure (SMILES) | Ryegrass, Italian plant response rating ([1]; 125 g ai/ha) | Ryegrass, Italian plant response rating (0 to 100 scale) [1] | Barnyardgrass plant response rating ([2]; 125 g ai/ha) | Barnyardgrass plant response rating (0 to 100 scale) [2] | Foxtail, Giant plant response rating ([3]; 125 g ai/ha) | Foxtail, Giant plant response rating (0 to 100 scale) [3] | Kochia plant response rating (kochia (Kochia scoparia) [4]; 125 g ai/ha) | Kochia plant response rating (0 to 100 scale) (kochia (Kochia scoparia) [4]) | Pigweed plant response rating ([5]; 125 g ai/ha) | Pigweed plant response rating (0 to 100 scale) [5] | Ragweed plant response rating ([6]; 125 g ai/ha) | Ragweed plant response rating (0 to 100 scale) [6] | Ryegrass, Italian plant response rating (0 to 100 scale) [7, 19] | Ryegrass, Italian plant response rating [7] | Barnyardgrass plant response rating (0 to 100 scale) [8, 19] | Barnyardgrass plant response rating [8] | Plant response rating, Barnyardgrass (0 to 100 scale, 0 is no effect, 100 is complete control) [16] | Plant response rating, Ducksalad (0 to 100 scale, 0 is no effect, 100 is complete control) [17] | Plant response rating, Rice (0 to 100 scale, 0 is no effect, 100 is complete control) (rice (Oryza sativa)) | Plant response rating, Sedge, Umbrella (0 to 100 scale, 0 is no effect, 100 is complete control) [18] | further results
C#CCO/N=C(\c1c(O)c(C)nn(C)c1=O)c1cccc2ccccc12 [Compound 83, 5-hydroxy-2,6-dimethyl-4-[(Z)-[(2-propyn-1-yloxy)imino]-1-naphthalenylmethyl]-3(2H)-pyridazinone] | 80 | 100 | 80 | 100 | 90 | 100 | 20 | 100 | 100 | 100 | 100 | 100 | 100 | 90 | 80 | 60 | 0 | 75 | 0 | 70 | Blackgrass plant response rating (0 to 100 scale) [9, 19]: 100; Blackgrass plant response rating [9]: 90; Corn plant response rating (0 to 100 scale) (corn (Zea mays); [19]): 40; Corn plant response rating (corn (Zea mays)): 20; Foxtail, Giant plant response rating (0 to 100 scale) [10, 19]: 80; Foxtail, Giant plant response rating [10]: 70; Galium plant response rating (0 to 100 scale) [11, 19]: 100; Galium plant response rating [11]: 90; Kochia plant response rating (0 to 100 scale) (kochia (Kochia scoparia) [12]; [19]): 90; Kochia plant response rating (kochia (Kochia scoparia) [12]): 80; Pigweed plant response rating (0 to 100 scale) [13, 19]: 90; Pigweed plant response rating [13]: 80; Ragweed plant response rating (0 to 100 scale) [14, 19]: 100; Ragweed plant response rating [14]: 90; Wheat plant response rating (0 to 100 scale) [15, 19]: 60; Wheat plant response rating [15]: 40
CCON=C(c1cccc(C)c1)c1c(O)c(C)nn(C)c1=O (mixture of isomers) [Compound 6] | – | – | – | – | – | – | – | – | – | – | – | – | – | – | – | – | 0 | 0 | 0 | 0 | Ryegrass, Italian plant response rating ([1]; 1000 g ai/ha): 80; Barnyardgrass plant response rating ([2]; 1000 g ai/ha): 30; Foxtail, Giant plant response rating ([3]; 1000 g ai/ha): 30; Kochia plant response rating (kochia (Kochia scoparia) [4]; 1000 g ai/ha): 20; Pigweed plant response rating ([5]; 1000 g ai/ha): 70; Ragweed plant response rating ([6]; 1000 g ai/ha): 50; Ryegrass, Italian plant response rating (0 to 100 scale) [7, 20]: 70; Barnyardgrass plant response rating (0 to 100 scale) [8, 20]: 30; Blackgrass plant response rating (0 to 100 scale) [9, 20]: 10; Corn plant response rating (0 to 100 scale) (corn (Zea mays); [20]): 0; Foxtail, Giant plant response rating (0 to 100 scale) [10, 20]: 50; Galium plant response rating (0 to 100 scale) [11, 20]: 90; Kochia plant response rating (0 to 100 scale) (kochia (Kochia scoparia) [12]; [20]): 80; Pigweed plant response rating (0 to 100 scale) [13, 20]: 80; Ragweed plant response rating (0 to 100 scale) [14, 20]: 90; Wheat plant response rating (0 to 100 scale) [15, 20]: 0
CO/N=C(\c1cccc(C#N)c1)c1c(O)c(C)nn(C)c1=O [Compound 74] | 0 | 0 | 0 | 0 | 0 | 0 | 0 | 0 | 0 | 0 | 0 | 0 | 20 | 10 | 0 | 0 | 0 | 25 | 15 | 10 | Blackgrass plant response rating (0 to 100 scale) [9, 19]: 20; Blackgrass plant response rating [9]: 0; Corn plant response rating (0 to 100 scale) (corn (Zea mays); [19]): 0; Corn plant response rating (corn (Zea mays)): 0; Foxtail, Giant plant response rating (0 to 100 scale) [10, 19]: 0; Foxtail, Giant plant response rating [10]: 0; Galium plant response rating (0 to 100 scale) [11, 19]: 50; Galium plant response rating [11]: 10; Kochia plant response rating (0 to 100 scale) (kochia (Kochia scoparia) [12]; [19]): 30; Kochia plant response rating (kochia (Kochia scoparia) [12]): 0; Pigweed plant response rating (0 to 100 scale) [13, 19]: 30; Pigweed plant response rating [13]: 20; Ragweed plant response rating (0 to 100 scale) [14, 19]: 20; Ragweed plant response rating [14]: 0; Wheat plant response rating (0 to 100 scale) [15, 19]: 0; Wheat plant response rating [15]: 0
C#CCO/N=C(/c1c(O)c(C)nn(C)c1=O)c1ccc(F)c2ccccc12 [Compound 109, 4-[(E)-(4-fluoro-1-naphthalenyl)[(2-propyn-1-yloxy)imino]methyl]-5-hydroxy-2,6-dimethyl-3(2H)-pyridazinone] | 100 | 100 | 90 | 100 | 100 | 100 | 10 | 50 | 100 | 100 | 90 | 100 | 100 | 100 | 90 | 90 | 50 | 40 | 45 | 60 | Blackgrass plant response rating (0 to 100 scale) [9, 19]: 100; Blackgrass plant response rating [9]: 90; Corn plant response rating (0 to 100 scale) (corn (Zea mays); [19]): 70; Corn plant response rating (corn (Zea mays)): 20; Foxtail, Giant plant response rating (0 to 100 scale) [10, 19]: 90; Foxtail, Giant plant response rating [10]: 80; Galium plant response rating (0 to 100 scale) [11, 19]: 100; Galium plant response rating [11]: 100; Kochia plant response rating (0 to 100 scale) (kochia (Kochia scoparia) [12]; [19]): 90; Kochia plant response rating (kochia (Kochia scoparia) [12]): 70; Pigweed plant response rating (0 to 100 scale) [13, 19]: 100; Pigweed plant response rating [13]: 90; Ragweed plant response rating (0 to 100 scale) [14, 19]: 90; Ragweed plant response rating [14]: 80; Wheat plant response rating (0 to 100 scale) [15, 19]: 90; Wheat plant response rating [15]: 90
C=CCc1ccccc1C(=NOC)c1c(O)c(C)nn(C)c1=O [Compound 122] | 50 | 60 | 0 | 30 | 10 | 80 | 0 | 10 | 20 | 90 | 10 | 50 | 90 | 70 | 60 | 20 | 0 | 0 | 0 | 0 | Blackgrass plant response rating (0 to 100 scale) [9, 19]: 40; Blackgrass plant response rating [9]: 20; Corn plant response rating (0 to 100 scale) (corn (Zea mays); [19]): 10; Corn plant response rating (corn (Zea mays)): 0; Foxtail, Giant plant response rating (0 to 100 scale) [10, 19]: 70; Foxtail, Giant plant response rating [10]: 50; Galium plant response rating (0 to 100 scale) [11, 19]: 80; Galium plant response rating [11]: 60; Kochia plant response rating (0 to 100 scale) (kochia (Kochia scoparia) [12]; [19]): 50; Kochia plant response rating (kochia (Kochia scoparia) [12]): 40; Pigweed plant response rating (0 to 100 scale) [13, 19]: 70; Pigweed plant response rating [13]: 60; Ragweed plant response rating (0 to 100 scale) [14, 19]: 60; Ragweed plant response rating [14]: 50; Wheat plant response rating (0 to 100 scale) [15, 19]: 30; Wheat plant response rating [15]: 0
